Among the data in patent US20100216777A1, “AMINOPYRAZINE ANALOGS FOR TREATING GLAUCOMA AND OTHER RHO KINASE-MEDIATED DISEASES AND CONDITIONS” (ALCON, INC., priority 2004, published 2010) are IC50 values, retold here.

Molecules are shown by their SMILES. Structures can show the parent of a compound that is named as a salt.

By IC50 is commonly meant the concentration that gives 50% inhibition.

The target in the experiment is T1, Human Recombinant ROCK-II Enzyme (ROKα/ROCK-II, aa 11-552) (Homo sapiens, UniProt O75116).
T1 construct: (ROKα/ROCK-II, (aa 11-552), human active); purchased Upstate Biotechnology Co., Lake Placid, N.Y. 14-451
T1 sequence (O75116 11-552): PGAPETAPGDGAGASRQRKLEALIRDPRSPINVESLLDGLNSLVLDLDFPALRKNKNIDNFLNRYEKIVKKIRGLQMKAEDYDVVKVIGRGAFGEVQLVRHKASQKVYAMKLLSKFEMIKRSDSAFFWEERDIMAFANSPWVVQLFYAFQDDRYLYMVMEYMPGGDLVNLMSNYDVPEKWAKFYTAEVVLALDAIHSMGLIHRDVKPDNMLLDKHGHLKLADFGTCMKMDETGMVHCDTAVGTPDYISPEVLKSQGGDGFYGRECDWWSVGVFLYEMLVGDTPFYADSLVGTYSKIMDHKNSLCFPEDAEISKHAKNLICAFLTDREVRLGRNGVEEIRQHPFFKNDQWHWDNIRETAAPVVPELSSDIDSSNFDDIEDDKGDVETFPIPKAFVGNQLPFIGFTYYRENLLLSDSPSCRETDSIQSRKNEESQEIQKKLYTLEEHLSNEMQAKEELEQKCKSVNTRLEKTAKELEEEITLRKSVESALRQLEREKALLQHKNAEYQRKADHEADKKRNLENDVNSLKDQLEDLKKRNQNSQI
The experiment is described as follows: ROCK-II inhibition, fluorescence polarization assay (IMAP ROCK II kit). The class given is biochemical. As to conditions: substrate 200 nM, ATP 10 μM, 60 min at 23° C., read-out: Enzyme Inhibition Constants (IC50) against Human Recombinant ROCK-II Enzyme. The method, then: The ability of certain compounds of Formula (I) to inhibit rho kinase was evaluated by means of in vitro assays. Human recombinant Rho kinase (ROKα/ROCK-II, (aa 11-552), human active, catalog #14-451, Upstate Biotechnology Co., Lake Placid, N.Y.), MgCl2/ATP cocktail, and enzyme substrate (Upstate) are used.
The fluorescence polarization assays are performed using a Biomek 2000 Robotic Workstation (Beckman Instruments, Palo Alto, Calif.) in a 96-well plate format. The assays are performed utilizing the IMAP ROCK II kit (Molecular Devices, Sunnyvale, Calif.) as follows. Substrate and ATP concentrations used are 200 nM and 10 μM, respectively, while the enzyme concentration is 3.96×10^−3 units per well. The substrate, enzyme, and ATP dilutions are made with the reaction buffer provided by the vendor. Test compounds are diluted in 10:10 DMSO-ethanol (vol/vol). For the actual assays, the various components are added into black, clear bottom, 96-well plates (Costar, Corning, N.Y.) in a final volume of 20 μl per well. After the enzyme reaction (60 min at 23° C.), 60 μl of the binding solution (IMAP kit, provided by vendor) is added per well and incubated for an additional 30 minutes in the dark at 23° C. Fluorescence polarization of the reaction mixtures is then measured on the Analyst™ HT instrument (Molecular Devices, Sunnyvale, Calif.).
The data generated are then analyzed using a non-linear, iterative, sigmoidal-fit computer program purchased from IDBS (Emeryville, Calif.) and as previously described (Sharif et al., J. Pharmacol. Exp. Ther. 286:1094-1102, 1998; Sharif et al., J. Pharmacol. Expt. Ther. 293:321-328, 2000; Sharif et al., J. Ocular Pharmacol. Ther. 18:141-162, 2002a; Sharif et al., J. Pharmac. Pharmacol. 54:539-547, 2002b) to generate the inhibition constants for the test compounds.
Consider `CN1CCCC(Oc2nc(-c3ccncc3)cnc2N)C1` (stereo not shown) [Example 21, 3-(1-Methylpiperidin-3-yloxy)-5-(pyridin-4-yl)pyrazin-2-amine], for which the concentration for half-maximal inhibition (IC50) stood at 4.2 nM.
`Nc1ncc(-c2ccncc2)nc1OC1CCNCC1` [Example 22, 3-(Piperidin-4-yloxy)-5-(pyridin-4-yl)pyrazin-2-amine]: the IC50 was found to be 1.1 nM.
`Nc1ncc(-c2ccncc2)nc1OC1CCCNC1` (stereo not shown) [Example 23, 3-(Piperidin-3-yloxy)-5-(pyridin-4-yl)pyrazin-2-amine]: the 50% inhibitory concentration (IC50) was found to be 0.68 nM.
The result for `Nc1ncc(-c2ccncc2)nc1N1CCN(CCCO)CC1` [Example 24, 3-(4-(3-Amino-6-(pyridin-4-yl)pyrazin-2-yl)piperazin-1-yl)propan-1-ol] reads 1.7 nM; that for `CNc1ncc(-c2ccncc2)nc1N1CCCN(C)CC1` [Example 25, N-Methyl-3-(4-methyl-1,4-diazepan-1-yl)-5-(pyridin-4-yl)pyrazin-2-amine hydrochloride], 2.4 nM; that for `CNc1ncc(-c2ccncc2)nc1NC1CCCNC1` (stereo not shown) [Example 26, N^2-Methyl-N^3-(piperidin-3-yl)-5-(pyridin-4-yl)pyrazine-2,3-diamine hydrochloride], 2.1 nM.
The result for `COCCNc1ncc(-c2ccncc2)nc1N1CCCN(C)CC1` [Example 27, N-(2-Methoxyethyl)-3-(4-methyl-1,4-diazepan-1-yl)-5-(pyridin-4-yl)pyrazin-2-amine hydrochloride] reads 5.2 nM; that for `CN1CCCN(c2nc(-c3ccncc3)cnc2NCCO)CC1` [Example 28, 2-(3-(4-Methyl-1,4-diazepan-1-yl)-5-(pyridin-4-yl)pyrazin-2-ylamino)ethanol hydrochloride], 3 nM.
On to `COCCN(C)c1ncc(-c2ccncc2)nc1N1CCCN(C)CC1` [Example 29, N-(2-Methoxyethyl)-N-methyl-3-(4-methyl-1,4-diazepan-1-yl)-5-(pyridin-4-yl)pyrazin-2-amine hydrochloride], for which the IC50 came out at 45 nM.
The result for `CN(C)c1ncc(-c2ccncc2)nc1N1CCN(CCO)CC1` [Example 30, 2-(4-(3-(Dimethylamino)-6-(pyridin-4-yl)pyrazin-2-yl)piperazin-1-yl)ethanol hydrochloride] reads 0.3 nM; that for `CN(C)c1ncc(-c2ccnc3[nH]ccc23)nc1N1CCN(CCO)CC1` [Example 31, 2-(4-(3-(Dimethylamino)-6-(1H-pyrrolo[2,3-b]pyridin-4-yl)pyrazin-2-yl)piperazin-1-yl)ethanol], 0.053 nM; that for `CN1CCCN(c2nc(-c3ccncc3)cnc2N(C)C)CC1` [Example 32, N,N-dimethyl-3-(4-methyl-1,4-diazepan-1-yl)-5-(pyridin-4-yl)pyrazin-2-amine hydrochloride], 1.7 nM.
Take `CN1CCCN(c2nc(-c3ccnc4[nH]ncc34)cnc2N(C)C)CC1` [Example 33, N,N-Dimethyl-3-(4-methyl-1,4-diazepan-1-yl)-5-(1H-pyrazolo[3,4-b]pyridin-4-yl)pyrazin-2-amine dihydrochloride]: the concentration for half-maximal inhibition (IC50) was 0.54 nM.
The figure for `CN(C)c1ncc(-c2ccncc2)nc1NC1CCCNC1` (stereo not shown) [Example 34, N,N-(Piperidin-3-yl)-6-(pyridin-4-yl)pyrazine-2,3-diamine] is 3.1 nM; for `CN(C)c1ncc(-c2ccncc2)nc1OC1CCNCC1` [Example 35, N,N-Dimethyl-3-(piperidin-4-yloxy)-5-(pyridin-4-yl)pyrazin-2-amine hydrochloride] it is 0.94 nM.
The result for `CN(C)CCCOc1nc(-c2ccncc2)cnc1N(C)C` [Example 36, 3-(3-(Dimethylamino)propoxy)-N,N-dimethyl-5-(pyridin-4-yl)pyrazin-2-amine hydrochloride] reads 11 nM; that for `CCN(CC)c1ncc(-c2ccncc2)nc1N1CCCN(C)CC1` [Example 37, N,N-Diethyl-3-(4-methyl-1,4-diazepan-1-yl)-5-(pyridin-4-yl)pyrazin-2-amine hydrochloride], 6.7 nM.
The result for `CN1CCCN(c2nc(-c3ccncc3)cnc2N2CCCC2)CC1` [Example 38, 1-Methyl-4-(6-(pyridin-4-yl)-3-(pyrrolidin-1-yl)pyrazin-2-yl)-1,4-diazepane hydrochloride] reads 0.33 nM; that for `CN1CCCN(c2nc(-c3ccnc4[nH]ccc34)cnc2N2CCCC2)CC1` [Example 39, 4-(6-(4-Methyl-1,4-diazepan-1-yl)-5-(pyrrolidin-1-yl)pyrazin-2-yl)-1H-pyrrolo[2,3-b]pyridine dihydrochloride], 0.16 nM.
For the compound `c1cc(-c2cnc(N3CCCC3)c(N3CCCNCC3)n2)ccn1` [Example 40, 1-(6-(Pyridin-4-yl)-3-(pyrrolidin-1-yl)pyrazin-2-yl)-1,4-diazepane hydrochloride], the IC50 turned out to be 0.33 nM.
Regarding `c1cc2[nH]ncc2cc1-c1cnc(N2CCCC2)c(N2CCCNCC2)n1` [Example 42, 5-(6-(1,4-Diazepan-1-yl)-5-(pyrrolidin-1-yl)pyrazin-2-yl)-1H-indazole hydrochloride], the half-maximal inhibitory concentration (IC50) was 0.033 nM.
As to `Cc1n[nH]c2ccc(-c3cnc(N4CCCC4)c(N4CCCNCC4)n3)cc12` [Example 43, 5-(6-(1,4-Diazepan-1-yl)-5-(pyrrolidin-1-yl)pyrazin-2-yl)-3-methyl-1H-indazole hydrochloride], the IC50 is 0.11 nM.
On to `OCCN1CCN(c2nc(-c3ccncc3)cnc2N2CCCC2)CC1` [Example 44], for which the IC50 worked out at 0.078 nM.
The result for `c1cc(-c2cnc(N3CCCC3)c(NC3CCCNC3)n2)ccn1` (stereo not shown) [Example 45, N-(Piperidin-3-yl)-6-(pyridin-4-yl)-3-(pyrrolidin-1-yl)pyrazin-2-amine dihydrochloride] reads 0.25 nM; that for `c1cc(-c2cnc(N3CCCC3)c(OC3CCNCC3)n2)ccn1` [Example 46, 3-(Piperidin-4-yloxy)-5-(pyridin-4-yl)-2-(pyrrolidin-1-yl)pyrazine], 0.084 nM.
The figure for `c1cc(-c2cnc(N3CCCC3)c(OC3CCNCC3)n2)c2cc[nH]c2n1` [Example 47, 4-(6-(Piperidin-4-yloxy)-5-(pyrrolidin-1-yl)pyrazin-2-yl)-1H-pyrrolo[2,3-b]pyridine] is 0.054 nM.
In the case of `CN1CCCN(c2nc(-c3ccncc3)cnc2N2CCCCC2)CC1` [Example 48, 1-Methyl-4-(3-(piperidin-1-yl)-6-(pyridin-4-yl)pyrazin-2-yl)-1,4-diazepane hydrochloride], the IC50 worked out at 0.56 nM.
The figure for `c1cc(-c2cnc(N3CCCCC3)c(NC3CCCNC3)n2)ccn1` (stereo not shown) [Example 49, 3-(Piperidin-1-yl)-N-(piperidin-3-yl)-6-(pyridin-4-yl)pyrazin-2-amine] is 0.3 nM.
As for `CN1CCCN(c2nc(-c3ccncc3)cnc2N2CCCCCC2)CC1` [Example 50, 1-(3-(Azepan-1-yl)-6-(pyridin-4-yl)pyrazin-2-yl)-4-methyl-1,4-diazepane hydrochloride], the IC50 is 0.02 nM.
The figure for `c1cc(-c2cnc(N3CCCCCC3)c(NC3CCCNC3)n2)ccn1` (stereo not shown) [Example 51, 3-(Azepan-1-yl)-N-(piperidin-3-yl)-6-(pyridin-4-yl)pyrazin-2-amine dihydrochloride] is 0.19 nM.
The figure for `CN1CCCN(c2nc(-c3ccncc3)cnc2N2CCOCC2)CC1` [Example 52, 4-(3-(4-Methyl-1,4-diazepan-1-yl)-5-(pyridin-4-yl)pyrazin-2-yl)morpholine trihydrochloride] is 6.3 nM.
